# Data published in PubChem BioAssay (NCI).
#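 Test compounds were applied to cells in 96-well plates for 48 hours at 5 doses. At the TGI there is no net growth.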
# Legend:
# Assay in all cases: NCI anticancer screen, dose series, 48 h
# 786-0 renal = tested on: 786-0 renal
# A498 renal = tested on: A498 renal
# A549 NSCLC = tested on: A549 NSCLC
# ACHN renal = tested on: ACHN renal
# CAKI-1 renal = tested on: CAKI-1 renal
# CCRF-CEM leukemia = tested on: CCRF-CEM leukemia
# COLO 205 colon = tested on: COLO 205 colon
# DLD-1 colon = tested on: DLD-1 colon
# DMS 114 small cell lung = tested on: DMS 114 small cell lung
# DMS 273 small cell lung = tested on: DMS 273 small cell lung
# EKVX NSCLC = tested on: EKVX NSCLC
# HCC-2998 colon = tested on: HCC-2998 colon
# HCT-116 colon = tested on: HCT-116 colon
# HCT-15 colon = tested on: HCT-15 colon
# HL-60(TB) leukemia = tested on: HL-60(TB) leukemia
# HOP-18 NSCLC = tested on: HOP-18 NSCLC
# HOP-62 NSCLC = tested on: HOP-62 NSCLC
# HT29 colon = tested on: HT29 colon
# IGROV1 ovarian = tested on: IGROV1 ovarian
# K-562 leukemia = tested on: K-562 leukemia
# KM12 colon = tested on: KM12 colon
# KM20L2 colon = tested on: KM20L2 colon
# LOX IMVI melanoma = tested on: LOX IMVI melanoma
# LXFL 529 NSCLC = tested on: LXFL 529 NSCLC
# M14 melanoma = tested on: M14 melanoma
# M19-MEL melanoma = tested on: M19-MEL melanoma
# MALME-3M melanoma = tested on: MALME-3M melanoma
# MOLT-4 leukemia = tested on: MOLT-4 leukemia
# NCI-H226 lung = tested on: NCI-H226 lung
# NCI-H23 lung = tested on: NCI-H23 lung
# NCI-H460 lung = tested on: NCI-H460 lung
# NCI-H522 lung = tested on: NCI-H522 lung
# OVCAR-3 ovarian = tested on: OVCAR-3 ovarian
# OVCAR-4 ovarian = tested on: OVCAR-4 ovarian
# OVCAR-5 ovarian = tested on: OVCAR-5 ovarian
# OVCAR-8 ovarian = tested on: OVCAR-8 ovarian
# RPMI-8226 leukemia = tested on: RPMI-8226 leukemia
# RXF 393 renal = tested on: RXF 393 renal
# RXF-631 renal = tested on: RXF-631 renal
# SF-268 CNS = tested on: SF-268 CNS
# SF-295 CNS = tested on: SF-295 CNS
# SF-539 CNS = tested on: SF-539 CNS
# SK-MEL-2 melanoma = tested on: SK-MEL-2 melanoma
# SK-MEL-28 melanoma = tested on: SK-MEL-28 melanoma
# SK-MEL-5 melanoma = tested on: SK-MEL-5 melanoma
# SK-OV-3 ovarian = tested on: SK-OV-3 ovarian
# SN12C renal = tested on: SN12C renal
# SNB-19 CNS = tested on: SNB-19 CNS
# SNB-75 CNS = tested on: SNB-75 CNS
# SNB-78 CNS = tested on: SNB-78 CNS
# SR leukemia = tested on: SR leukemia
# SW-620 colon = tested on: SW-620 colon
# TK-10 renal = tested on: TK-10 renal
# U251 CNS = tested on: U251 CNS
# UACC-257 melanoma = tested on: UACC-257 melanoma
# UACC-62 melanoma = tested on: UACC-62 melanoma
# UO-31 renal = tested on: UO-31 renal
# XF 498 CNS = tested on: XF 498 CNS
# HOP-92 NSCLC = tested on: HOP-92 NSCLC
smiles,measurement,setting,value
Cc1c(NC(=O)/C(=N/NC(=S)N=N)C2C(=O)CC(C)(C)CC2=O)c(O)c2ccccc2c1O,TGI,786-0 renal,27.2 µM
same,TGI,A498 renal,35.7 µM
same,TGI,A549 NSCLC,21.7 µM
same,TGI,ACHN renal,26.8 µM
same,TGI,CAKI-1 renal,37.6 µM
same,TGI,CCRF-CEM leukemia,21.1 µM
same,TGI,COLO 205 colon,25.5 µM
same,TGI,DLD-1 colon,20.7 µM
same,TGI,DMS 114 small cell lung,4.17 µM
same,TGI,DMS 273 small cell lung,22.4 µM
same,TGI,EKVX NSCLC,32.2 µM
same,TGI,HCC-2998 colon,23.3 µM
same,TGI,HCT-116 colon,13.7 µM
same,TGI,HCT-15 colon,18.8 µM
same,TGI,HL-60(TB) leukemia,22.7 µM
same,TGI,HOP-18 NSCLC,30.4 µM
same,TGI,HOP-62 NSCLC,36 µM
same,TGI,HT29 colon,33.6 µM
same,TGI,IGROV1 ovarian,19.8 µM
same,TGI,K-562 leukemia,62.8 µM
same,TGI,KM12 colon,22.1 µM
same,TGI,KM20L2 colon,40.4 µM
same,TGI,LOX IMVI melanoma,12 µM
same,TGI,LXFL 529 NSCLC,23.7 µM
same,TGI,M14 melanoma,18.5 µM
same,TGI,M19-MEL melanoma,2.95 µM
same,TGI,MALME-3M melanoma,29.6 µM
same,TGI,MOLT-4 leukemia,15.7 µM
same,TGI,NCI-H226 lung,27.7 µM
same,TGI,NCI-H23 lung,11.9 µM
same,TGI,NCI-H460 lung,64.9 µM
same,TGI,NCI-H522 lung,8.39 µM
same,TGI,OVCAR-3 ovarian,6.5 µM
same,TGI,OVCAR-4 ovarian,27 µM
same,TGI,OVCAR-5 ovarian,36.9 µM
same,TGI,OVCAR-8 ovarian,17.6 µM
same,TGI,RPMI-8226 leukemia,56.7 µM
same,TGI,RXF 393 renal,33.2 µM
same,TGI,RXF-631 renal,31.7 µM
same,TGI,SF-268 CNS,21.7 µM
same,TGI,SF-295 CNS,27.6 µM
same,TGI,SF-539 CNS,12.4 µM
same,TGI,SK-MEL-2 melanoma,26.1 µM
same,TGI,SK-MEL-28 melanoma,26.4 µM
same,TGI,SK-MEL-5 melanoma,11.3 µM
same,TGI,SK-OV-3 ovarian,36.9 µM
same,TGI,SN12C renal,20.1 µM
same,TGI,SNB-19 CNS,26.5 µM
same,TGI,SNB-75 CNS,45.6 µM
same,TGI,SNB-78 CNS,58.8 µM
same,TGI,SR leukemia,14.9 µM
same,TGI,SW-620 colon,22.3 µM
same,TGI,TK-10 renal,35.6 µM
same,TGI,U251 CNS,14 µM
same,TGI,UACC-257 melanoma,14 µM
same,TGI,UACC-62 melanoma,6 µM
same,TGI,UO-31 renal,25.4 µM
same,TGI,XF 498 CNS,28.9 µM
CCOC(=O)C1C(c2ccccc2)=C(c2ccccc2)C(c2ccccc2)=C1c1ccccc1,TGI,786-0 renal,55.8 µM
same,TGI,A498 renal,57.1 µM
same,TGI,A549 NSCLC,97.4 µM
same,TGI,ACHN renal,> 82.2 µM
same,TGI,CAKI-1 renal,> 100 µM
same,TGI,CCRF-CEM leukemia,> 100 µM
same,TGI,COLO 205 colon,> 100 µM
same,TGI,DLD-1 colon,> 100 µM
same,TGI,DMS 114 small cell lung,> 100 µM
same,TGI,DMS 273 small cell lung,> 100 µM
same,TGI,EKVX NSCLC,> 100 µM
same,TGI,HCC-2998 colon,> 100 µM
same,TGI,HCT-116 colon,> 76.6 µM
same,TGI,HCT-15 colon,> 100 µM
same,TGI,HL-60(TB) leukemia,> 100 µM
same,TGI,HOP-18 NSCLC,82.4 µM
same,TGI,HOP-62 NSCLC,33.3 µM
same,TGI,HOP-92 NSCLC,50.7 µM
same,TGI,HT29 colon,> 100 µM
same,TGI,IGROV1 ovarian,> 70.2 µM
same,TGI,K-562 leukemia,> 100 µM
same,TGI,KM12 colon,> 100 µM
same,TGI,KM20L2 colon,> 100 µM
same,TGI,LOX IMVI melanoma,> 100 µM
same,TGI,LXFL 529 NSCLC,> 100 µM
same,TGI,M14 melanoma,> 100 µM
same,TGI,M19-MEL melanoma,> 100 µM
same,TGI,MALME-3M melanoma,> 91.7 µM
same,TGI,MOLT-4 leukemia,> 100 µM
same,TGI,NCI-H226 lung,> 60.1 µM
same,TGI,NCI-H23 lung,> 100 µM
same,TGI,NCI-H460 lung,> 100 µM
same,TGI,NCI-H522 lung,98.1 µM
same,TGI,OVCAR-3 ovarian,68.7 µM
same,TGI,OVCAR-4 ovarian,> 100 µM
same,TGI,OVCAR-5 ovarian,> 100 µM
same,TGI,OVCAR-8 ovarian,> 72.7 µM
same,TGI,RPMI-8226 leukemia,> 100 µM
same,TGI,RXF 393 renal,40.4 µM
same,TGI,RXF-631 renal,> 100 µM
same,TGI,SF-268 CNS,> 100 µM
same,TGI,SF-295 CNS,69.8 µM
same,TGI,SF-539 CNS,91 µM
same,TGI,SK-MEL-2 melanoma,> 82.3 µM
same,TGI,SK-MEL-28 melanoma,> 100 µM
same,TGI,SK-MEL-5 melanoma,> 100 µM
same,TGI,SK-OV-3 ovarian,49 µM
same,TGI,SN12C renal,> 83.6 µM
same,TGI,SNB-19 CNS,40.3 µM
same,TGI,SNB-75 CNS,32.1 µM
same,TGI,SNB-78 CNS,> 91.6 µM
same,TGI,SR leukemia,> 100 µM
same,TGI,SW-620 colon,> 100 µM
same,TGI,TK-10 renal,57.4 µM
same,TGI,U251 CNS,55.7 µM
same,TGI,UACC-257 melanoma,> 100 µM
same,TGI,UACC-62 melanoma,60.9 µM
same,TGI,UO-31 renal,> 93.7 µM
same,TGI,XF 498 CNS,> 56.8 µM
